Like-named read-outs stand apart in the source and are kept apart here.
Legend:
[1] = tested on: cell line ET (luc-ubi-neo/ET), Huh7 human hepatoma cell line
[2] = Metabolic stability assay; assay type: in vitro ADME, human
[3] = tested on: cell line ET (luc-ubi-neo/ET), Huh7 human hepatoma cell line; experiment: Cytotoxicity in secondary assay; details: cellular ribosomal RNA as cytotoxicity control
HCV 1b replicon = experiment: Secondary HCV antiviral assay: qRT-PCR; assay type: cell-based
in vitro = details: human
[4] = cited from earlier work
[5] = Cytotoxicity in secondary assay; details: human
[6] = qRT-PCR (TaqMan) of HCV RNA, single assay, quadruplicate wells
[7] = human liver microsomes, 0.1 µM, NADPH-regenerating system, 37 °C, mean of two independent experiments

Structure (SMILES) | CC50 [1] [µM] | Clint ([2]; human, microsomes) [µl/min/mg protein] | T1/2 ([2]; human, microsomes) [min] | CC50 [3] [µM] | EC50 (HCV 1b replicon; [6]) [µM] | EC90 (HCV 1b replicon; [6]) [µM] | further results
C[C@@]1(O)[C@H](O)[C@@H](CO)O[C@H]1n1ccc(=O)[nH]c1=O [2’-C-Me-uridine, reference compound] | > 100 | – | – | – | – | – | –
COC(=O)CC[C@H](NP(=O)(OC[C@H]1O[C@@H](n2ccc(=O)[nH]c2=O)[C@](C)(O)[C@@H]1O)Oc1ccccc1)C(=O)OC (stereo partly drawn) [31a, 2′-C-Methyl-uridine-5′-[phenylbis(methoxy-L-glutamyl)]phosphate] | > 20 | – | – | – | – | – | –
CC(C)CCOC(=O)CC[C@H](NP(=O)(OC[C@H]1O[C@@H](n2ccc(=O)[nH]c2=O)[C@](C)(O)[C@@H]1O)Oc1ccccc1)C(=O)OCCC(C)C (stereo partly drawn) [31b, 2′-C-Methyl-uridine-5′-[phenylbis(isoamyl-L-glutamyl)]phosphate] | > 20 | 844.60 | 8 | 9.98 | 0.01 | 0.13 | –
COC(=O)[C@H](COCc1ccccc1)NP(=O)(OC[C@H]1O[C@@H](n2ccc(=O)[nH]c2=O)[C@](C)(O)[C@@H]1O)Oc1ccccc1 (stereo partly drawn) [31c, 2′-C-Methyl-uridine-5′-[phenyl(α-methoxy-β-O-benzyl-L-serine)]phosphate] | > 20 | – | – | – | – | – | –
CCCCCOC(=O)[C@H](COCc1ccccc1)NP(=O)(OC[C@H]1O[C@@H](n2ccc(=O)[nH]c2=O)[C@](C)(O)[C@@H]1O)Oc1ccccc1 (stereo partly drawn) [31d, 2′-C-Methyl-uridine-5′-[phenyl(α-amyl-β-O-benzyl-L-serine)]phosphate] | 5.89 | 496.80 | 14 | – | – | – | –
CC(C)CCOC(=O)[C@H](COCc1ccccc1)NP(=O)(OC[C@H]1O[C@@H](n2ccc(=O)[nH]c2=O)[C@](C)(O)[C@@H]1O)Oc1ccccc1 (stereo partly drawn) [31e, 2′-C-Methyl-uridine-5′-[phenyl(α-isoamyl-β-O-benzyl-L-serine)]phosphate] | 8 | – | – | 4.59 | 0.01 | 0.08 | –
COC(=O)[C@H](COC(=O)C(C)C)NP(=O)(OC[C@H]1O[C@@H](n2ccc(=O)[nH]c2=O)[C@](C)(O)[C@@H]1O)Oc1ccccc1 (stereo partly drawn) [31f, 2′-C-Methyl-uridine-5′-[phenyl(α-methoxy-β-O-isobutyryl-L-serine)]phosphate] | > 20 | – | – | – | – | – | –
CCCCCOC(=O)[C@H](COC(=O)C(C)C)NP(=O)(OC[C@H]1O[C@@H](n2ccc(=O)[nH]c2=O)[C@](C)(O)[C@@H]1O)Oc1ccccc1 (stereo partly drawn) [31g, 2′-C-Methyl-uridine-5′-[phenyl(α-amyl-β-O-isobutyryl-L-serine)]phosphate] | 6.79 | – | – | – | – | – | –
CC(C)CCOC(=O)[C@H](COC(=O)C(C)C)NP(=O)(OC[C@H]1O[C@@H](n2ccc(=O)[nH]c2=O)[C@](C)(O)[C@@H]1O)Oc1ccccc1 (stereo partly drawn) [31h, 2′-C-Methyl-uridine-5′-[phenyl(α-isoamyl-β-O-isobutyryl-L-serine)]phosphate] | 7.51 | 763.70 | 9 | 5.28 | 0.02 | 0.13 | –
CC(C)CCOC(=O)[C@@H](NP(=O)(OC[C@H]1O[C@@H](n2ccc(=O)[nH]c2=O)[C@](C)(O)[C@@H]1O)Oc1ccccc1)[C@@H](C)OCc1ccccc1 (stereo partly drawn) [31i, 2′-C-Methyl-uridine-5′-[phenyl(isoamyl-O-benzyl-L-threonine)]phosphate] | > 20 | 699.00 | 10 | 7.27 | 0.04 | 0.69 | –
CC(C)CCOC(=O)[C@@H](NP(=O)(OC[C@H]1O[C@@H](n2ccc(=O)[nH]c2=O)[C@](C)(O)[C@@H]1O)Oc1ccccc1)[C@@H](C)OC(=O)C(C)C (stereo partly drawn) [31j, 2′-C-Methyl-uridine-5′-[phenyl(isoamyl-O-isobutyryl-L-threonine)]phosphate] | 11.5 | – | – | – | – | – | –
CC(C)CCOC(=O)[C@H](Cc1ccc(OC(=O)C(C)C)cc1)NP(=O)(OCC1OC(n2ccc(=O)[nH]c2=O)C(C)(O)C1O)Oc1ccccc1 (stereo partly drawn) [31k, 2′-C-Methyl-uridine-5′-[phenyl(isoamyl-O-isobutyryl-L-tyrosine)]phosphate] | – | – | – | 18.4 | 0.04 | 0.69 | Clint [2, 7]: 679.60 µl/min/mg protein; T1/2 [2, 7]: 10 min; CC50 ([1]; concentration decreasing cell viability by 50%, 72 hrs, CytoTox-ONE): > 20 µM
CC(C)OC(=O)[C@H](C)N[P@](=O)(OC[C@H]1O[C@@H](n2ccc(=O)[nH]c2=O)[C@](C)(F)[C@@H]1O)Oc1ccccc1 [Sofosbuvir, reference compound] | – | – | – | – | – | – | CC50 (in vitro): > 5 µM; cytotoxicity (devoid up to) [4]: > 100 µM; CC50 [5]: > 5 µM; EC50 (HCV 1b replicon; Hepatitis C virus): 0.07 µM; EC90 (HCV 1b replicon; Hepatitis C virus): 0.28 µM

— PMC5079539 (Organic & biomolecular chemistry, 2016)
